Data as given in patent publication US8030360B2, “Anti-wrinkle agent” (Kemphys Ltd., priority 2004, dated 2011).

Experiments:
[1] = test system: guinea pig skin; assay: Cumulative skin irritancy test of a retinoid on guinea pig skin; assay type: in vivo
Procedure: (§1) Histological tests were conducted to study the irritancy of a retinoid on guinea pig skin and correlation between an irritancy threshold and a retinoid action threshold. Each of male guinea pigs of approximately in a weight of 600 g was applied once every day with 1, 5, 10, 50, or 100 ppm of retinoic acid (RA) or Am80 (4-[(5,6,7,8-tetrahydro-5,5,8,8-tetramethyl-2-naphthalenyl)carbamoyl]benzoic acid) as an ethanol solution on the dorsal skin (5 days a week). As a control, only the solvent (ethanol) was applied. The skin responses were evaluated according to the following 5-step criteria, and average values were calculated for each concentration of the drugs by using results obtained from three of the guinea pigs. • 0: No skin response was observed. • 1: Slight erythema was observed. • 2: Obvious erythema was observed. • 3: Strong erythema or slight edema/crust was observed. • 4: Obvious edema/crust, or more severe changes was observed.
(§2) Further, concentration dependencies of cumulative skin irritancy of RA and Am80 for the same application period were compared.

[2] = test system: guinea pig skin; assay: Histological findings of guinea pig skin at the end of the application period; assay type: in vivo
Procedure: as §1, §2

[3] = test system: horny layer; assay: Horny layer turnover test (dansylchloride fluorescence); assay type: in vivo, guinea pig; settings: 50 ppm, 10 μl/1 cm diameter, once a day (FIG. 3)
Procedure: Actions on turnover of horny layer were evaluated by using guinea pigs. Hartley albino male guinea pigs of approximately 750 g in weight, whose hair was removed using depilatory wax three days prior to the experiment, were applied occlusively with 5% Vaseline ointment of dansylchloride for 24 hours using a patch test Finn Chamber, and then the skin of the guinea pigs were wiped to remove the ointment. A portable fluorometer was used for irradiation with ultraviolet rays having maximum at around 338 nm, and the fluorescent intensity of the dansylchloride was measured. Simultaneously, fluorescent intensity of an area where dansylchloride was not applied (blank value) was measured in the same manner. After the measurement of the fluorescent intensities, 10 μl/1 cm diameter of RA and Am80 at 50 ppm concentration were applied once a day. During the measurement, skin irritancy was also determined according to the criteria indicated in Example 1. […] Cumulative skin irritancy was simultaneously evaluated according to the criteria in Example 1, and the results were obtained as shown in FIG. 4.

[4] = test system: skin grooves; assay: Planarization action on skin surface formation (skin groove), silicon resin replicas and image analysis; assay type: in vivo, hairless mice; settings: 0.01% in ethanol
Procedure: Changes which appear on skin grooves after applications of RA and Am80 (each at a concentration of 0.01% in ethanol) were studied by using hairless mice (Skh-h4l, 16 weeks old, female, 5 mice per group). The applications were conducted once a day, 5 days a week, and for 30 days. As a control, only ethanol was applied. On the next day of the day of last application, replicas of skin surfaces were created by using a silicon resin, and various parameters that represent features of the shape of the skin surface were determined by using an apparatus for image analysis. […] Further, the decrease in KSD correlated to epidermal thickening.

[5] = test system: fibroblast cells; assay: Acceleration of EGF-dependent growth of fibroblast cells; assay type: cell-based; settings: low serum level
Procedure: The growth of fibroblast cells, being suspended under a low serum level, is dependent on growth factors, and the growth will start by the addition of EGF. The acceleration effects of RA and Am80 on the EGF-dependent growth were evaluated. RA gave the maximum effect (40% promotion) at 10^−6 M, and Am80 gave the maximum effect (30% promotion) at 10^−8 M. The acceleration effect of Am80 (10%) was also observed at 10^−10 Ml.

[6] = test system: Normal human keratinocyte; assay: Human keratinocyte growth (amount of DNA as index); assay type: cell-based; settings: amount of DNA as index of HK growth
Procedure: (§3) Normal human keratinocyte obtained from human chest skin (HK, Kurabo) was cultured, and the cells were added with RA or Am80 (0.01% in dimethyl sulfoxide) on the second day. The cells on the second to 13th day after the addition of the agents were used as samples. By using the amount of DNA as an index of HK growth, and by using compositional ratio (K1/K16) of differentiated keratin (k1; 68 kD) and proliferating keratin (K16; 48 kD) in one-dimension SDS-PAGE as an index of differentiation, differentiation suppression rate was determined as a value wherein the ratio of the indexes of each sample and control applied only with a solvent was subtracted from 1. […] IC50 was 10^−6 to 10^−7 M for RA, and 10^−9 M for Am80.

[7] = test system: Normal human keratinocyte; assay: Human keratinocyte differentiation (K1/K16 keratin ratio, SDS-PAGE); assay type: cell-based
Procedure: as §3

[8] = reported in WO96/30009; cited from earlier work

CC1(C)CCC(C)(C)c2cc(NC(=O)c3ccc(C(=O)O)cc3)ccc21 [Am80, 4-[(5,6,7,8-tetrahydro-5,5,8,8-tetramethyl-2-naphthalenyl)carbamoyl]benzoic acid]
skin responses ([1]; 10 ppm or less, during this period (FIG. 2)): no skin responses | skin response compared with retinoic acid ([1]; RA and Am80 at the same concentration (FIG. 1)): much weaker skin response than retinoic acid and induces extremely slow skin response | skin thickening and inflammatory changes compared with RA [2]: more slight skin thickening and inflammatory changes even when applied at 10 times higher concentration | action on horny cell layer turnover [3]: almost no effect | epidermal thickening ([4]; for 30 days (FIG. 6)): obvious changes | planarization changes of skin surface on replicas ([4]; once a day, 5 days a week, for 30 days): The same action was observed | Emax at 0.01 µM ([5]; Fibroblast, at 10^−8 M, read-out: maximum effect on EGF-dependent growth (promotion)): 30% | acceleration effect on EGF-dependent growth ([5]; at 10^−10 Ml): 10% | IC50 ([6]; Homo sapiens, Keratinocyte, read-out: IC50 of cell growth suppression): 1 nM | differentiation suppression rates as compared to that by RA ([7]; Am80 versus RA): 1.3 to 1.7 times | cell differentiation suppression action compared with RA ([7]; K1/K16 ratio as index of differentiation): stronger than that of RA | concentration at which cell differentiation suppression action is also observed ([7]; as low as): 10^−8 to 10^−10 M | effect on dermatopathy caused by rays of sunlight [8]: ineffective

CC1=C(/C=C/C(C)=C/C=C/C(C)=C/C(=O)O)C(C)(C)CCC1 [RA, retinoic acid, reference compound]
irritancy threshold (cumulative skin irritancy) ([1]; same application period, FIG. 2 (9th day of application)): less than 5 ppm | Emax at 1 µM ([5]; Fibroblast, at 10^−6 M, read-out: maximum effect on EGF-dependent growth (promotion)): 40% | IC50 of cell growth suppression [6]: 10^−6 to 10^−7 M
